From the supplement of paper PMC6045584
± gives the standard deviation of the averaged measurements.

What follows are test systems tested with CC(=O)c1c(C)c2cnc(Nc3ccc(N4CCNCC4)cn3)nc2n(C2CCCC2)c1=O (assay: surviving fraction relative to DMSO-only wells; higher = less growth inhibition). Conditions: 1000 nM; exposure time: 5 days.
Outline: (§1)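 Lines were retained only if, across three screens, replicate Pearson r was >0.7 and median Z' was >0.3. Viability was measured as CellTiter-Glo luminescence and reported as surviving fraction relative to the median of DMSO-only wells. Readings followed 10 minutes at room temperature, after log-phase tumour cells seeded at 250–500 per well in 384-well plates had been exposed, from 24 hours after seeding, continuously for five days to inhibitors at 0.5, 1, 5, 10, 50, 100, 500 and 1000 nM.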

Row | Test System | surviving fraction
1 | ZR751 BREAST | 1.01 ± 0.054

The test systems below were run with Cc1ccc(-c2cc(C(F)(F)F)nn2-c2ccc(S(N)(=O)=O)cc2)cc1 [CELECOXIB] in the same assay as above. Conditions: 0.5 nM; exposure time: 5 days.
Outline: as §1

Row | Test System | surviving fraction
2 | JIMT1 BREAST | 1.04 ± 0.039
3 | LM7 BONE | 0.979 ± 0.059
4 | LNCAP PROSTATE | 1.02 ± 0.042
5 | MDAMB134 BREAST | 0.969 ± 0.016
6 | MDAMB157 BREAST | 0.92 ± 0.089
7 | MDAMB231 BREAST | 0.973 ± 0.02
8 | MDAMB361 BREAST | 0.857 ± 0.13
9 | MDAMB436 BREAST | 0.986 ± 0.11
10 | MDAMB468 BREAST | 1.05 ± 0.043
11 | MFM223 BREAST | 1.41 ± 0.52
12 | MG63 BONE | 1.04 ± 0.045
13 | MHM BONE | 1.01 ± 0.038
14 | NCIH441 LUNG | 1.16 ± 0.019
15 | NOS1 BONE | 1.18 ± 0.12
16 | NY BONE | 0.989 ± 0.03
17 | OS25HAL BONE | 1.03 ± 0.017
18 | OSHN BONE | 1.099 ± 0.0076
19 | RDES SOFT TISSUE | 1.11 ± 0.11
20 | SCC47 HEADNECK | 1.08 ± 0.089
21 | SCC90 HEADNECK | 0.978 ± 0.063

Row | Test System | surviving fraction
22 | SG27 HEADNECK | 1.18 ± 0.086
23 | SG28 HEADNECK | 1.19 ± 0.26
24 | SG31 HEADNECK | 1.27 ± 0.19
25 | SG32 HEADNECK | 1.37 ± 0.15
26 | SG43 HEADNECK | 0.96 ± 0.3
27 | SIHA CERVIX | 1.08 ± 0.065
28 | SJSA1 BONE | 1.15 ± 0.061
29 | SKBR3 BREAST | 1.15 ± 0.096
30 | SNU475 LIVER | 1.06 ± 0.039
31 | SUM44 BREAST | 1.28 ± 0.4
32 | SUM149.B1*.S BREAST | 1.075 ± 0.01
33 | SUM159 BREAST | 1.07 ± 0.032
34 | SYO1 SYNOVIAL | 0.952 ± 0.052
35 | T47D BREAST | 1.08 ± 0.026
36 | U2OS BONE | 0.98 ± 0.055
37 | VCAP PROSTATE | 1.07 ± 0.068
38 | VP229 BREAST | 1.15 ± 0.15
39 | YAMATO SYNOVIAL | 1.3 ± 0.17
40 | ZR751 BREAST | 1.1 ± 0.19

Same assay, conditions: 1 nM; exposure time: 5 days

Row | Test System | surviving fraction
41 | JIMT1 BREAST | 1.04 ± 0.023
42 | LM7 BONE | 0.963 ± 0.023
43 | LNCAP PROSTATE | 0.956 ± 0.067
44 | MDAMB134 BREAST | 0.898 ± 0.054
45 | MDAMB157 BREAST | 0.989 ± 0.093
46 | MDAMB231 BREAST | 1 ± 0.015
47 | MDAMB361 BREAST | 0.895 ± 0.013
48 | MDAMB436 BREAST | 1.09 ± 0.23
49 | MDAMB468 BREAST | 1.05 ± 0.097
50 | MFM223 BREAST | 1.3 ± 0.2
51 | MG63 BONE | 1.04 ± 0.046
52 | MHM BONE | 1.01 ± 0.027
53 | NCIH441 LUNG | 1.19 ± 0.043
54 | NOS1 BONE | 1.15 ± 0.34
55 | NY BONE | 1.04 ± 0.041
56 | OS25HAL BONE | 1.02 ± 0.033
57 | OSHN BONE | 1.091 ± 0.0078
58 | RDES SOFT TISSUE | 1.16 ± 0.14
59 | SCC47 HEADNECK | 1.11 ± 0.092
60 | SCC90 HEADNECK | 1.09 ± 0.13

Row | Test System | surviving fraction
61 | SG27 HEADNECK | 1.14 ± 0.069
62 | SG28 HEADNECK | 1.19 ± 0.04
63 | SG31 HEADNECK | 1.4 ± 0.5
64 | SG32 HEADNECK | 1.15 ± 0.063
65 | SG43 HEADNECK | 1.22 ± 0.49
66 | SIHA CERVIX | 1 ± 0.064
67 | SJSA1 BONE | 1.68 ± 0.074
68 | SKBR3 BREAST | 1.11 ± 0.11
69 | SNU475 LIVER | 1.08 ± 0.054
70 | SUM44 BREAST | 1.25 ± 0.47
71 | SUM149.B1*.S BREAST | 1.09 ± 0.021
72 | SUM159 BREAST | 1.1 ± 0.031
73 | SYO1 SYNOVIAL | 0.998 ± 0.055
74 | T47D BREAST | 1.05 ± 0.081
75 | U2OS BONE | 1.03 ± 0.032
76 | VCAP PROSTATE | 1.08 ± 0.17
77 | VP229 BREAST | 1.21 ± 0.19
78 | YAMATO SYNOVIAL | 1.38 ± 0.056
79 | ZR751 BREAST | 1.1 ± 0.077

Same assay, conditions: 5 nM; exposure time: 5 days

Row | Test System | surviving fraction
80 | JIMT1 BREAST | 1.06 ± 0.039
81 | LM7 BONE | 1.06 ± 0.05
82 | LNCAP PROSTATE | 0.986 ± 0.057
83 | MDAMB134 BREAST | 0.881 ± 0.084
84 | MDAMB157 BREAST | 0.993 ± 0.048
85 | MDAMB231 BREAST | 0.985 ± 0.018
86 | MDAMB361 BREAST | 0.897 ± 0.12
87 | MDAMB436 BREAST | 1.03 ± 0.085
88 | MDAMB468 BREAST | 1.16 ± 0.054
89 | MFM223 BREAST | 1.29 ± 0.26
90 | MG63 BONE | 1.09 ± 0.038
91 | MHM BONE | 1.04 ± 0.03
92 | NCIH441 LUNG | 1.1 ± 0.11
93 | NOS1 BONE | 1.16 ± 0.071
94 | NY BONE | 1.09 ± 0.038
95 | OS25HAL BONE | 1.06 ± 0.021
96 | OSHN BONE | 1.13 ± 0.018
97 | RDES SOFT TISSUE | 1.19 ± 0.069
98 | SCC47 HEADNECK | 1.09 ± 0.096

Row | Test System | surviving fraction
99 | SCC90 HEADNECK | 1.09 ± 0.11
100 | SG27 HEADNECK | 1.14 ± 0.09
101 | SG28 HEADNECK | 1.24 ± 0.099
102 | SG31 HEADNECK | 1.11 ± 0.21
103 | SG32 HEADNECK | 1.29 ± 0.13
104 | SG43 HEADNECK | 0.942 ± 0.31
105 | SIHA CERVIX | 1.08 ± 0.033
106 | SJSA1 BONE | 1.6 ± 0.048
107 | SKBR3 BREAST | 1.019 ± 0.0061
108 | SNU475 LIVER | 1.02 ± 0.03
109 | SUM44 BREAST | 1.35 ± 0.54
110 | SUM149.B1*.S BREAST | 1.13 ± 0.075
111 | SUM159 BREAST | 1.09 ± 0.032
112 | SYO1 SYNOVIAL | 0.985 ± 0.065
113 | T47D BREAST | 1.08 ± 0.043
114 | VCAP PROSTATE | 1.06 ± 0.067
115 | VP229 BREAST | 1.21 ± 0.12
116 | YAMATO SYNOVIAL | 1.4 ± 0.12
117 | ZR751 BREAST | 1.05 ± 0.07

Same assay, conditions: 10 nM; exposure time: 5 days

Row | Test System | surviving fraction
118 | JIMT1 BREAST | 1.08 ± 0.051
119 | LM7 BONE | 1.1 ± 0.086
120 | LNCAP PROSTATE | 1.01 ± 0.081
121 | MDAMB134 BREAST | 0.913 ± 0.083
122 | MDAMB157 BREAST | 0.967 ± 0.045
123 | MDAMB231 BREAST | 1 ± 0.015
124 | MDAMB361 BREAST | 0.896 ± 0.081
125 | MDAMB436 BREAST | 1.04 ± 0.11
126 | MDAMB468 BREAST | 1.17 ± 0.11
127 | MFM223 BREAST | 1.33 ± 0.34
128 | MG63 BONE | 1.08 ± 0.033
129 | MHM BONE | 1.08 ± 0.057
130 | NCIH441 LUNG | 1.11 ± 0.035
131 | NOS1 BONE | 1.25 ± 0.051
132 | NY BONE | 1.08 ± 0.022
133 | OS25HAL BONE | 1.07 ± 0.022
134 | OSHN BONE | 1.1 ± 0.019
135 | RDES SOFT TISSUE | 1.11 ± 0.077
136 | SCC47 HEADNECK | 1.12 ± 0.067

Row | Test System | surviving fraction
137 | SCC90 HEADNECK | 1.01 ± 0.077
138 | SG27 HEADNECK | 1.13 ± 0.046
139 | SG28 HEADNECK | 1.2 ± 0.13
140 | SG31 HEADNECK | 1.11 ± 0.25
141 | SG32 HEADNECK | 1.18 ± 0.26
142 | SG43 HEADNECK | 0.929 ± 0.28
143 | SJSA1 BONE | 1.54 ± 0.045
144 | SKBR3 BREAST | 1.02 ± 0.085
145 | SNU475 LIVER | 1.05 ± 0.033
146 | SUM44 BREAST | 1.26 ± 0.34
147 | SUM149.B1*.S BREAST | 1.12 ± 0.016
148 | SUM159 BREAST | 1.08 ± 0.048
149 | SYO1 SYNOVIAL | 0.9986 ± 0.0091
150 | T47D BREAST | 1.08 ± 0.035
151 | U2OS BONE | 1.03 ± 0.048
152 | VCAP PROSTATE | 1.14 ± 0.1
153 | VP229 BREAST | 1.12 ± 0.13
154 | YAMATO SYNOVIAL | 1.47 ± 0.11
155 | ZR751 BREAST | 1.07 ± 0.076
